Source: ChEMBL document CHEMBL5608247, “Development of a First-in-Class DNMT1/HDAC Inhibitor with Improved Therapeutic Potential and Potentiated Antitumor Immunity” (J Med Chem, 2024)

Key:
Histone deacetylase = assay: Inhibition of HDAC extracted from human HeLa cell nucleus using Boc-Lys(Ac)-AMC as substrate preincubated for 5 mins followed by substrate addition measured after 30 mins by fluorescence based assay; format: subcellular
[1] = target: T1, DNA (cytosine-5)-methyltransferase 1 (Homo sapiens, UniProt P26358); assay: Inhibition of NLuc-fused DNMT1 expressed hypomorphic in human HCT-116 cells assessed as TSG repoter activation at 3 uM incubated for 72 hrs by Nano-Glo Luciferase assay; format: cell-based
Target sequence in this assay (P26358 whole entry, looked up, the tested form may be a part): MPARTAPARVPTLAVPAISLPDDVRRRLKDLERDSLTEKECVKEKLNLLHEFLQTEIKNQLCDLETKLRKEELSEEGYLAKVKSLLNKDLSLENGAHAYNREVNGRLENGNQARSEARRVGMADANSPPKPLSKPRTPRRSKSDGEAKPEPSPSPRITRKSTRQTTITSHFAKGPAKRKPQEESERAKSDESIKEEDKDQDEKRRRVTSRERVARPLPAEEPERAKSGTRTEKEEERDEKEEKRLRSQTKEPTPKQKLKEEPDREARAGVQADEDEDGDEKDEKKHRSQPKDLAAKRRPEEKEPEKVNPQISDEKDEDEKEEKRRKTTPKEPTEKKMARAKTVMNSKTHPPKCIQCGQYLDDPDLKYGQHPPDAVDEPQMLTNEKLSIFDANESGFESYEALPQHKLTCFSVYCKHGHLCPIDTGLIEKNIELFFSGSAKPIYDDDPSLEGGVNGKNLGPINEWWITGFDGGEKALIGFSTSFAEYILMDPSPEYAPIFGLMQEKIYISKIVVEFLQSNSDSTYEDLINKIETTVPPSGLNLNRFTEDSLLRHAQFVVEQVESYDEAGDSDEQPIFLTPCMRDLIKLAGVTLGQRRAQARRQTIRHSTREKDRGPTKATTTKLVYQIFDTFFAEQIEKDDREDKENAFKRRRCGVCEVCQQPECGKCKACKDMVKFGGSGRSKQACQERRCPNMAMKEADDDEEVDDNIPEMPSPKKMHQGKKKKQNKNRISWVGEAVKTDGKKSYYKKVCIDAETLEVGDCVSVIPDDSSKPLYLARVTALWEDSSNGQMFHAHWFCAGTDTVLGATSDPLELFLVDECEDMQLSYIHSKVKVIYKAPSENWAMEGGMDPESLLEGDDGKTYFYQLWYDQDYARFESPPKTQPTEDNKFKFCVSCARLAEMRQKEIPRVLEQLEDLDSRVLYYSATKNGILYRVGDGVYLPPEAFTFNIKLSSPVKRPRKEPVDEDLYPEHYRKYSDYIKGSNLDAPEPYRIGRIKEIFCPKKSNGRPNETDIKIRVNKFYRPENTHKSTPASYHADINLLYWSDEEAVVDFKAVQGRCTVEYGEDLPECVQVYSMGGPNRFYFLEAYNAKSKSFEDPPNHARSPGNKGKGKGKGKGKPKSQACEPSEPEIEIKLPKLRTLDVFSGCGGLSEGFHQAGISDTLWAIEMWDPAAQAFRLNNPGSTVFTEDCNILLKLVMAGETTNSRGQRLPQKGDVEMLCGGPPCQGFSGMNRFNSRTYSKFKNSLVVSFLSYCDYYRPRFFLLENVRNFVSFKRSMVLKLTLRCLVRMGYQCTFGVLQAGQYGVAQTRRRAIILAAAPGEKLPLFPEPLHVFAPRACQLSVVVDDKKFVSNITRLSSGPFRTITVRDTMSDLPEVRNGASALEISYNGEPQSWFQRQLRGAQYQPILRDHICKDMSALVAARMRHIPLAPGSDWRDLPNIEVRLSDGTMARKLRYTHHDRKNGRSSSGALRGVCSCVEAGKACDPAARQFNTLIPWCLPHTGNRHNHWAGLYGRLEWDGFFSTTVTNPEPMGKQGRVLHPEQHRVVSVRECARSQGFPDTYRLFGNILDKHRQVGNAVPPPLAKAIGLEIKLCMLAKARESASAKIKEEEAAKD

[2] = target: T1, DNA (cytosine-5)-methyltransferase 1; assay: Induction of thermal stabilization of N-terminal 6xHis-FLAG-tagged […] human DNMT1 (698 to 1616 residues) extracted from Sf9 cells assessed as change in melting temperature at 10 uM by SYPRO Orange dye based PTS assay (reference value: 0.0 degreeC); format: cell-based
Target sequence in this assay (P26358 whole entry, the tested form may be a part): as the sequence (P26358 whole entry, looked up, the tested form may be a part) above

MV4-11 [3] = assay: Antitumor activity against human MV4-11 cells xenografted in BALB/c nude mouse at 45 mg/kg, ip qd treated for 19 days relative to control; format: functional; conditions: MV4-11, 456 h, time 19 day, read-out: TGI
[4] = target: T2, DNA (cytosine-5)-methyltransferase 3B (Homo sapiens, UniProt Q9UBC3); assay: Inhibition of DNMT3B (unknown origin)
MV4-11 [5] = assay: Antiproliferative activity against human MV4-11 cells incubated for 96 hrs by CCK8 assay; format: functional, cell-based; conditions: MV4-11, 96 h
[6] = target: DNA (cytosine-5)-methyltransferase 3A (Homo sapiens) (UniProt Q9Y6K1); assay: Inhibition of DNMT3A (unknown origin) at 100 uM relative to control
Sequence of DNA (cytosine-5)-methyltransferase 3A (Homo sapiens) (Q9Y6K1 whole entry, looked up): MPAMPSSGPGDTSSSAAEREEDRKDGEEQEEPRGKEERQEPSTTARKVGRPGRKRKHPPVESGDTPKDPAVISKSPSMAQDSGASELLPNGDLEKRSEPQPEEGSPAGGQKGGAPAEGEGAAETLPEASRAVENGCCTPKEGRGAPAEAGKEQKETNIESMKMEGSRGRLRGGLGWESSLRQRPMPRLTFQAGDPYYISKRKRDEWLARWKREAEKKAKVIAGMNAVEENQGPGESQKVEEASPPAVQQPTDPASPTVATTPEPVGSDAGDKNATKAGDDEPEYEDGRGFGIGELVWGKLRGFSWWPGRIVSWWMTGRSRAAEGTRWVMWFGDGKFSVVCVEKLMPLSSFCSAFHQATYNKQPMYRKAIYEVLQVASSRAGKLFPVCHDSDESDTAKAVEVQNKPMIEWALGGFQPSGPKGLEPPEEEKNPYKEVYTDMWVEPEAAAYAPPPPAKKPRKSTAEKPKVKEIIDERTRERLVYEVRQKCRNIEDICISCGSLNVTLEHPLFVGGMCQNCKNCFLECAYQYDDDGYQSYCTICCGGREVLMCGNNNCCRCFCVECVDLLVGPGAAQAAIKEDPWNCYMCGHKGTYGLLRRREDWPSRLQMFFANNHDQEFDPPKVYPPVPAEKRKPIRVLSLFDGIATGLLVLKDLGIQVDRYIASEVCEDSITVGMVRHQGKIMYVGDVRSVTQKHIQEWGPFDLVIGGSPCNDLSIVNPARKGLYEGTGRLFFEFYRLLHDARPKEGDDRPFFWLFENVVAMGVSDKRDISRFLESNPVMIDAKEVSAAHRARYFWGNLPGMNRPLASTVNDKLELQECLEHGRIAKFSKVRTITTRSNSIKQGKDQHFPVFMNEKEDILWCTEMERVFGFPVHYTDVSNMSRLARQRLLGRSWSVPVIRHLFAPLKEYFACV

[7] = target: T1, DNA (cytosine-5)-methyltransferase 1; assay: Inhibition of DNMT1 (unknown origin) at 100 uM relative to control
Target sequence in this assay (P26358 whole entry, the tested form may be a part): as the sequence (P26358 whole entry, looked up, the tested form may be a part) above

[8] = target: T3, Protein deacetylase HDAC6 (Homo sapiens, UniProt Q9UBN7); assay: Inhibition of HDAC6 (unknown origin)
T3 sequence (Q9UBN7 whole entry): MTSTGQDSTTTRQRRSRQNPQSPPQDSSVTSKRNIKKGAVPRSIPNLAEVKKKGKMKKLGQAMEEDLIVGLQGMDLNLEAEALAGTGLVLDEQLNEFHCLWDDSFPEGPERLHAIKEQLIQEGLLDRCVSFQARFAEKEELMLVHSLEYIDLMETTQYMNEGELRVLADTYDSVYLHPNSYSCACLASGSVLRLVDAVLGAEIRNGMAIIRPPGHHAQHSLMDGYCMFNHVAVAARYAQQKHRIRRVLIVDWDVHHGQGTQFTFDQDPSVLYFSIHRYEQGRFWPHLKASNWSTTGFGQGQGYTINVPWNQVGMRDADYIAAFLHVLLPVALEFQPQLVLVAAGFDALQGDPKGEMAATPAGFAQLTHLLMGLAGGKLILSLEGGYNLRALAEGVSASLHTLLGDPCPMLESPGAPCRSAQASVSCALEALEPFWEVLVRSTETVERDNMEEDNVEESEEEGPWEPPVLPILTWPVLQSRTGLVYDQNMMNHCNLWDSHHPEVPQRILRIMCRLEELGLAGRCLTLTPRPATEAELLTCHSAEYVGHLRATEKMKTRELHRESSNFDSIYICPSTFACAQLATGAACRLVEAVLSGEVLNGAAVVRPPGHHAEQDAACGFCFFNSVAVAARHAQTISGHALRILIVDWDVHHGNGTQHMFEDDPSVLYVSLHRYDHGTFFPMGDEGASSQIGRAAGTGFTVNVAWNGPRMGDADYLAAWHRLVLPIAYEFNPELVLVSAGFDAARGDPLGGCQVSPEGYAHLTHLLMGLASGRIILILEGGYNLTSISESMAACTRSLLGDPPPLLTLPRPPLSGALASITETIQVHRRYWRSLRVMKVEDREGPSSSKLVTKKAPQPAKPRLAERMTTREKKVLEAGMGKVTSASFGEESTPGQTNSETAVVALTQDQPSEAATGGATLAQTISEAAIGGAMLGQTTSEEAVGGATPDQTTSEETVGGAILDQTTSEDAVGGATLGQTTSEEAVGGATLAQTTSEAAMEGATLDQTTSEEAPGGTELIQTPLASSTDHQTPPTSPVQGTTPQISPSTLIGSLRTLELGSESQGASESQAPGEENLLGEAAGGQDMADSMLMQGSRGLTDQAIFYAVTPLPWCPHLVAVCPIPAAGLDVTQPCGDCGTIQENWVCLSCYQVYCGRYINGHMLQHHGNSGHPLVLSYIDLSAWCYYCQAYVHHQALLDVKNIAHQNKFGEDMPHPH

Histone deacetylase 1 = Histone deacetylase 1 (Homo sapiens, UniProt Q13547); assay: Inhibition of HDAC1 (unknown origin)
Sequence of Histone deacetylase 1 (Q13547 whole entry): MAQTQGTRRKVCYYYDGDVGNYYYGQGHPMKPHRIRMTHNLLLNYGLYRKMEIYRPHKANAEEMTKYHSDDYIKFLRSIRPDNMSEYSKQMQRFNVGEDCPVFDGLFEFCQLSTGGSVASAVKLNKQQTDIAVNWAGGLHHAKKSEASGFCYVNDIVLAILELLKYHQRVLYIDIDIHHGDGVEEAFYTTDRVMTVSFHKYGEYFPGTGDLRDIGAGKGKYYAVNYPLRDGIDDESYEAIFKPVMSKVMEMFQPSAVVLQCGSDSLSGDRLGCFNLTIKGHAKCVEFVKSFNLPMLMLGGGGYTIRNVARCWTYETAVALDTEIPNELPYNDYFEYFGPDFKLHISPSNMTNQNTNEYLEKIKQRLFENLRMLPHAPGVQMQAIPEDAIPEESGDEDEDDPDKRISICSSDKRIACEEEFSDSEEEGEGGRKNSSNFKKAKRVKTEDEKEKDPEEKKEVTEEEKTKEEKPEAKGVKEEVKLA

[9] = target: T2, DNA (cytosine-5)-methyltransferase 3B; assay: Inhibition of DNMT3B (unknown origin) at 100 uM relative to control

Row | Structure (SMILES) | IC50 (Histone deacetylase) | also measured
1 | CCc1c(C#N)c(SC(C(N)=O)c2ccccc2)nc(N2CCC(NC(=O)c3ccc(C(=O)Nc4ccccc4N)cc3)CC2)c1C#N (stereo unspecified) | > 20 µM | 
2 | CCc1c(C#N)c(SC(C(N)=O)c2ccccc2)nc(N2CCC(CNCc3ccc(/C=C/C(=O)NO)cc3)CC2)c1C#N (stereo unspecified) |  | EC50 [1]: 1.09 µM; ΔTm [2]: 11 °C; inhibition in vivo at 45 mg/kg (MV4-11 [3]): 95%
3 | CCc1c(C#N)c(SC(C(N)=O)c2ccccc2)nc(N(C)CCNCc2ccc(/C=C/C(=O)NO)cc2)c1C#N (stereo unspecified) | 0.16 µM | 
4 | CCc1c(C#N)c(SC(C(N)=O)c2ccccc2)nc(N2CCC(NCc3ccc(C(=O)Nc4ccccc4N)cc3)CC2)c1C#N (stereo unspecified) | > 20 µM | 
5 | CCc1c(C#N)c(SC(C(N)=O)c2ccccc2)nc(N2CCC(NC(=O)CCCCC(=O)Nc3ccc(C(=O)NO)cc3)CC2)c1C#N (stereo unspecified) | 0.28 µM | 
6 | CCc1c(C#N)c(SC(C(N)=O)c2ccccc2)nc(N2CCC(NCc3ccc(C(=O)NCc4ccc(/C=C/C(=O)NO)cc4)cc3)CC2)c1C#N (stereo unspecified) | 0.08 µM | 
7 | O=C(NO)C1CCN(CC(O)COC(Cn2c3ccccc3c3ccccc32)Cn2c3ccccc3c3ccccc32)CC1 (stereo unspecified) |  | IC50 [4]: 1.32 µM
8 | CCc1c(C#N)c(SC(C(N)=O)c2ccccc2)nc(N2CCC(NC(=O)CCCCCCC(=O)NO)CC2)c1C#N (stereo unspecified) | 0.3 µM | 
9 | CCc1c(C#N)c(SC(C(N)=O)c2ccccc2)nc(N2CCC(NC(=O)CCCC(=O)Nc3ccc(C(=O)NO)cc3)CC2)c1C#N (stereo unspecified) | 0.57 µM | 
10 | CCc1c(C#N)c(SC(C(N)=O)c2ccccc2)nc(N2CCC(NC(=O)CCCCCC(=O)NO)CC2)c1C#N (stereo unspecified) | 0.21 µM | 
11 | CCc1c(C#N)c(SC(C(N)=O)c2ccccc2)nc(N2CCC(NCc3ccc(/C=C/C(=O)NO)cc3)CC2)c1C#N (stereo unspecified) | 0.13 µM | IC50 (MV4-11 [5]): 0.66 µM; inhibition in vivo at 45 mg/kg (MV4-11 [3]): 80%
12 | CCc1c(C#N)c(SC(C(N)=O)c2ccccc2)nc(N2CCC(NC(=O)Cc3ccc(C(=O)Nc4ccccc4N)cc3)CC2)c1C#N (stereo unspecified) | > 20 µM | 
13 | CCc1c(C#N)c(SC(C(N)=O)c2ccccc2)nc(N2CCC(NC(=O)CCCC(=O)NO)CC2)c1C#N (stereo unspecified) | 1.07 µM | 
14 | CCc1c(C#N)c(SC(C(N)=O)c2ccccc2)nc(N(C)C2CCN(c3ncc(C(=O)NO)cn3)CC2)c1C#N (stereo unspecified) | 0.23 µM | inhibition [6]: 23.4%; inhibition [7]: 69.9%; IC50 [8]: 0.0174 µM; IC50 (Histone deacetylase 1): 0.0568 µM; inhibition [9]: 48.5%
15 | CCc1c(C#N)c(SC(C(N)=O)c2ccccc2)nc(N2CCC(NCc3ccc(C(=O)NO)cc3)CC2)c1C#N (stereo unspecified) | > 5 µM | 
16 | CCc1c(C#N)c(SC(C(N)=O)c2ccccc2)nc(N2CCC(NC(=O)CCC(=O)Nc3ccc(C(=O)NO)cc3)CC2)c1C#N (stereo unspecified) | 1.3 µM | 

Row | Structure (SMILES) | IC50 (Histone deacetylase) | also measured
17 | CCc1c(C#N)c(SC(C(N)=O)c2ccccc2)nc(N2CCN(Cc3ccc(/C=C/C(=O)NO)cc3)CC2)c1C#N (stereo unspecified) | 0.14 µM | 
18 | CCc1c(C#N)c(SC(C(N)=O)c2ccccc2)nc(N2CCC(NC(=O)CCC(=O)Nc3ccc(/C=C/C(=O)NO)cc3)CC2)c1C#N (stereo unspecified) | 0.23 µM | 
19 | CCc1c(C#N)c(SC(C(N)=O)c2ccccc2)nc(N2CCC(Nc3ncc(C(=O)NO)cn3)CC2)c1C#N (stereo unspecified) | 0.19 µM | 
20 | CCc1c(C#N)c(SC(C(N)=O)c2ccccc2)nc(N2CCC(NC(=O)CCCCCCCC(=O)NO)CC2)c1C#N (stereo unspecified) | 1.16 µM | 
21 | CCc1c(C#N)c(SC(C(N)=O)c2ccccc2)nc(N2CCC(NC(=O)CCCC(=O)Nc3ccccc3N)CC2)c1C#N (stereo unspecified) | > 20 µM | 
22 | CCc1c(C#N)c(CN(C)C2CCN(c3ncc(C(=O)NO)cn3)CC2)nc(SC(C(N)=O)c2ccccc2)c1C#N (stereo unspecified) | 0.1 µM | 
23 | CCc1c(C#N)c(SC(C(N)=O)c2ccccc2)nc(N2CCC(NC(=O)c3ccc(C(=O)NO)cc3)CC2)c1C#N (stereo unspecified) | 0.87 µM | 
24 | CCc1c(C#N)c(SC(C(N)=O)c2ccccc2)nc(N2CCC(NC(=O)CCC(=O)NCc3ccc(C(=O)NO)cc3)CC2)c1C#N (stereo unspecified) | 0.23 µM | 
25 | CCc1c(C#N)c(SC(C(N)=O)c2ccccc2)nc(N2CCC(CNc3ncc(C(=O)NO)cn3)CC2)c1C#N (stereo unspecified) | 0.14 µM | 
26 | CCc1c(C#N)c(S[C@H](C(N)=O)c2ccccc2)nc(N2CCC(CNCc3ccc(/C=C/C(=O)NO)cc3)CC2)c1C#N |  | EC50 [1]: 1.18 µM; ΔTm [2]: 9 °C
27 | CCc1c(C#N)c(SC(C(N)=O)c2ccccc2)nc(N2CCC(NC(=O)CCCC(=O)NCc3ccc(C(=O)NO)cc3)CC2)c1C#N (stereo unspecified) | 0.33 µM | 
28 | CCc1c(C#N)c(SC(C(N)=O)c2ccccc2)nc(N2CCC(NCc3ccc(C(=O)NCc4ccc(C(=O)NO)cc4)cc3)CC2)c1C#N (stereo unspecified) | 0.25 µM | 
29 | CCc1c(C#N)c(SC(C(N)=O)c2ccccc2)nc(N2CCC(NC(=O)CCCCC(=O)NO)CC2)c1C#N (stereo unspecified) | > 5 µM | 
30 | CCc1c(C#N)c(SC(C(N)=O)c2ccccc2)nc(N2CCN(c3ncc(C(=O)NO)cn3)CC2)c1C#N (stereo unspecified) | 0.06 µM | 
31 | CCc1c(C#N)c(SC(C(N)=O)c2ccccc2)nc(N2CCC(NC(=O)CCC(=O)NO)CC2)c1C#N (stereo unspecified) | > 5 µM | 
